Literature values as cited in patent US20220000962A1, “PLANT-BASED BIOLOGICALLY ACTIVE SUBSTANCE HAVING A POLYPHARMACOLOGICAL EFFECT” (priority 2015, published 2022).

Tested on: CMV
Settings: tricin obtained from Sasa albo-marginata

COc1cc(-c2cc(=O)c3c(O)cc(O)cc3o2)cc(OC)c1O [tricin, 5,7,4-trihydroxy-3′,5′-dimethoxyflavone]
concentration which inhibits development of CMV infection on the cellular level for 50%: 0.139 µg/mL | IC50 (read-out: concentration which inhibits development of CMV infection on the cellular level for 50%): 420 nM
